Test system: Tetrahymena pyriformis
Assay: 48 h IGC50 (-log10 mol/L); higher = more toxic

SMILES | 48 h IGC50 (-log10 mol/L)
O=C(O)CCCCCCCCCCC(=O)O | 2.91
CCCCOC(=O)CCCCCCC(=O)OCCCC | 4.66
CCCCCCCCOC(C)=O | 4.06
COc1cc(O)cc(Cl)c1 | 3.76
CCCOC(=O)/C=C/c1ccccc1 | 4.23
CCCCCCCC(=O)c1ccccc1 | 4.89
CC(C)COC=O | 1.69
Oc1c(F)c(F)cc(F)c1F | 4.17
CCOC(=O)CCCCCBr | 3.59
CCCc1ccccc1N | 3.08
COC(=O)C(C)Br (centres undefined) | 4.18
NC(=O)CBr | 4.52
CC(C)CCN | 2.42
CCCCCCC(C)=O | 2.85
COc1cccc(Cl)c1 | 3.29
CCc1ccc(CO)cc1 | 3.07
CC(C)(CO)CBr | 2.54
O=[N+]([O-])c1cccc2cccnc12 | 3.08
C/C=C/C(=O)OC | 2.08
Cc1cc(Cl)ncc1[N+](=O)[O-] | 3.42
C=CC(=O)OCc1ccccc1 | 4.35

SMILES | 48 h IGC50 (-log10 mol/L)
C=CCOC(=O)CC#N | 2.21
Cc1cc(C)c(C)c(O)c1 | 3.36
Cc1cccc(N)c1C | 2.57
CC=CCO | 1.53
NC(=O)c1cc(Cl)ccc1[N+](=O)[O-] | 2.68
NC(=O)c1ccc(N)cc1 | 2.09
Oc1ccc(O)c(Br)c1 | 4.68
N#Cc1ccccc1N | 2.5
O=Cc1cc(Cl)cc(Cl)c1Cl | 4.72
O=[N+]([O-])c1cccc(CO)c1 | 2.78
CCCC(Br)C(=O)O (centres undefined) | 2.96
CCc1ccc(-c2ccccc2)cc1 | 4.97
CCCCCCC#N | 2.76
NC(=O)Oc1ccccc1 | 2.61
CCCI | 2.61
N#CCC(=O)c1ccco1 | 3.3
C/C=C(\C)C(=O)OC | 2.38
C#CCCCCO | 1.71
COC(=O)CCCCCCCCC(=O)OC | 4.01
CCC/C=C/C(C)=O | 3.7
CC(=O)O[C@@H]1C[C@@H]2CC[C@@]1(C)C2(C)C | 3.68

SMILES | 48 h IGC50 (-log10 mol/L)
CC(C)CN | 2.74
CC(=O)c1cc[nH]c1 | 2.15
Cc1ccc(C#N)cc1 | 2.9
c1ccc2c(c1)ccc1cccnc12 | 4.31
O=C(c1ccccc1)c1cccc(Cl)c1 | 4.55
O=[N+]([O-])c1cc(F)ccc1O | 4.38
CC(C)=CCO | 1.76
O=[N+]([O-])c1cc(F)cc(I)c1 | 4.09
O=C(O)CCCCCl | 2.71
COc1ccc(Cl)c(Cl)c1Cl | 4.64
CCCCCCCCCC(C)O (centres undefined) | 4.58
CCN(CC)C(C)=O | 1.46
O=[N+]([O-])c1ccccc1Br | 3.75
CCCCCCCCCO | 3.85
CCCC#CCC(O)CC (centres undefined) | 2.96
Nc1cc([N+](=O)[O-])ccc1Cl | 3.6
CCCCCCCCOC(=O)CC#N | 3.9
Cc1cc(O)ccc1[N+](=O)[O-] | 4.73
CCCCCOc1ccc(N)cc1 | 3.97
Nc1ccccc1I | 3.35
Cc1ccc(CN)cc1 | 2.99

SMILES | 48 h IGC50 (-log10 mol/L)
CCCCC(=O)OCCC | 3.01
O=C1C=CC(=O)c2ccccc21 | 5
OCc1ccc(Cl)cc1 | 3.25
CCCCCCCCCCCN | 5.33
Oc1ccc(O)cc1 | 3.47
O=[N+]([O-])c1ccc(CBr)cc1 | 5.31
CCCCCCOC=O | 2.62
CCOS(=O)OCC | 2.01
Oc1cc(O)cc(O)c1 | 1.74
CCCCC/C=C/C(=O)OC | 3.77
CC(C)N | 2.14
CCOc1cccc2ccccc12 | 4.25
Cc1cc(Br)cc(C)c1O | 4.16
CCOC(=O)C(C#N)c1ccccc1 (centres undefined) | 2.98
C/C=C/C(C)=O | 3.54
C=Cc1ccc2ccccc2c1 | 4.24
O=[N+]([O-])c1cnc(Cl)c([N+](=O)[O-])c1 | 5.64
OCCCCO | 0.764
N#Cc1cc(Br)c(O)c(Br)c1 | 4.16
O=[N+]([O-])c1ccc2ccccc2c1O | 4.36
C=CC(=O)OCCCCCCC | 4.09
